Experimental data published in patent publication US10174011B2, “Heterocyclic compounds, process for preparation of the same and use thereof” (SHANGHAI INSTITUTE OF MATERIA MEDICA, CHINESE ACADEMY OF …, priority 2014, dated 2019).
Where a name gives a salt, the structure may show the parent alone. Read-outs that look alike come from different tables or passages of the source.

Tests used:
[1] = molecular target: human recombinant 5-HT1A receptor (Homo sapiens (Human), UniProt P08908); assay: 5-HT1A receptor agonism activity test (inhibition of cAMP production, LANCE cAMP 384 Kit); assay type: cell-based; conditions: HEK293 cells expressing human recombinant 5-HT1A receptor; test concentration 0.1 nM-10000 nM; read-out: 5-HT1A receptor agonism (EC50, mol/L)
Source text: Pharmacological Test 1) 5-HT1A Receptor Agonism Activity Test

[2] = molecular target: human recombinant D2 receptor (Homo sapiens (Human), UniProt P14416); assay: D2 receptor antagonism activity test (inhibition of dopamine-induced decrease of cAMP production, LANCE cAMP 384 Kit); conditions: read-out: D2 receptor antagonism (IC50, mol/L), HEK293 cells expressing human recombinant D2 receptor, 0.1 nM-10000 nM
[3] = molecular target: human recombinant 5-HT2A receptor (Homo sapiens (Human), UniProt P28223); assay: 5-HT2A receptor antagonism activity test (FLIPR Calcium 5 Assay Kit); conditions: read-out: 5-HT2A receptor antagonism (IC50, mol/L)
[4] = CHO-K1 cells expressing human recombinant 5-HT2A receptor, α-methyl-5-hydroxytryptamine 300 nM, 0.1 nM-10000 nM

human recombinant D2 receptor, sequence (P14416 whole entry): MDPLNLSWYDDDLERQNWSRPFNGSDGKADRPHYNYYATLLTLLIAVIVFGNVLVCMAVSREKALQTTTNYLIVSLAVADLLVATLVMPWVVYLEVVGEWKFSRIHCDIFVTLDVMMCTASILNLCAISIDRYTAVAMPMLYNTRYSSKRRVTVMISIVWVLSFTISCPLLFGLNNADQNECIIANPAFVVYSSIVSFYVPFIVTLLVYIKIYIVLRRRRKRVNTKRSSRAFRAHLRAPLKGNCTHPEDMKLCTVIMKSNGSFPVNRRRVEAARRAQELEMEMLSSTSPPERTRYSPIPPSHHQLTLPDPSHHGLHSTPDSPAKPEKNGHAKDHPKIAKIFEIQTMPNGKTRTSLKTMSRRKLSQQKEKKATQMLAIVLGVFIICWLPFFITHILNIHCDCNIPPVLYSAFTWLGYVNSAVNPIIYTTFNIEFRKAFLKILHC
human recombinant 5-HT1A receptor, sequence (P08908 whole entry): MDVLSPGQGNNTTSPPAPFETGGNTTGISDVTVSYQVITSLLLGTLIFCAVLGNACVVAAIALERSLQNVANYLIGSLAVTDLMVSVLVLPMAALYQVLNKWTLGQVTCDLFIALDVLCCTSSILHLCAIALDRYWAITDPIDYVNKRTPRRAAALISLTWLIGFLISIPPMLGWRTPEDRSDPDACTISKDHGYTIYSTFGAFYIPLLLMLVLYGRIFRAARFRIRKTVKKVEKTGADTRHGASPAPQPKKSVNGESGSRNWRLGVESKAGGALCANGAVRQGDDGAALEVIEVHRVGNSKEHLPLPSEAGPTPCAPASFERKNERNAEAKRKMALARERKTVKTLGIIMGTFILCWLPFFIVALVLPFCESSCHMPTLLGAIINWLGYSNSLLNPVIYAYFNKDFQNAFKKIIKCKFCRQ
human recombinant 5-HT2A receptor, sequence (P28223 whole entry): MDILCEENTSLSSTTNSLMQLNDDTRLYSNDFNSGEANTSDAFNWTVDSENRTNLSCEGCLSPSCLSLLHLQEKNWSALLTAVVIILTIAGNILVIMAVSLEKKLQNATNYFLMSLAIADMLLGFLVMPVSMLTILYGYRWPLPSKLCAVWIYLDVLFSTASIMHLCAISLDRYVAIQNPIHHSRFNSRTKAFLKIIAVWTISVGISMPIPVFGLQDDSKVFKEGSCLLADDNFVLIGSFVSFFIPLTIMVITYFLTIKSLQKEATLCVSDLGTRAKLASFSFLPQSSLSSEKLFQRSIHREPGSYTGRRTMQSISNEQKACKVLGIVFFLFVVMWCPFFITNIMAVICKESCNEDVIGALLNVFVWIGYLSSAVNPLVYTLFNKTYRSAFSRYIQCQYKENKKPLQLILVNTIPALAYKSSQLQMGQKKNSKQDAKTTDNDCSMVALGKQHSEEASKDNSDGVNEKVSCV

In the case of O=C1Cc2cc(CCN3CCN(c4cccc5c4CCS5)CC3)c(Cl)cc2N1 [Compound of example 1, 6-chloro-5-(2-(4-(2,3-dihydrobenzo[b]thiophen-4-yl)piperazin-1-yl)ethyl)indolin-2-one], the EC50 [1] is reported as 3.31 nM, the IC50 [2] is reported as 56.9 nM and the IC50 [3, 4] is reported as 227 nM.

For O=c1ccc2ccc(CCN3CCN(c4cccc5sccc45)CC3)cc2[nH]1 [Compound of example 9, 7-(2-(4-(benzo[b]thiophen-4-yl)piperazin-1-yl)ethyl)quinolin-2(1H)-one], the EC50 [1] was 0.972 nM, the IC50 [2] was 7.06 nM and the IC50 [3] was 95.6 nM.

O=c1ccc2ccc(CCCCCN3CCN(c4cccc5sccc45)CC3)cc2[nH]1 [Compound of example 11, 7-(5-(4-(benzo[b]thiophen-4-yl)piperazin-1-yl)pentyl)quinolin-2(1H)-one] gave an EC50 [1] of 1.95 nM and an IC50 [3, 4] of 209 nM.

With Cc1nc2c(OCc3ccccc3)cccn2c(=O)c1CCN1CCN(c2cccc3sccc23)CC1 [Compound of example 17, 3-(2-(4-(benzo[b]thiophen-4-yl)piperazin-1-yl)ethyl)-9-(benzyloxy)-2-methyl-4H-pyrido[1,2-a]pyrimidin-4-one hydrochloride] the IC50 [3, 4] was 350 nM.

For O=C1CCc2cc(Cl)c(CCN3CCN(c4cccc5sccc45)CC3)cc2N1 [Compound of example 23, 7-(2-(4-(benzo[b]thiophen-4-yl)piperazin-1-yl)ethyl)-6-chloro-3,4-dihydroquinolin-2(1H)-one], the EC50 [1] was 463 nM, the IC50 [2] was 81.2 nM and the IC50 [3, 4] was 97.6 nM.

With Cc1nc2ccc(CCCCCN3CCN(c4cccc5sccc45)CC3)cc2c(=O)[nH]1 [Compound of example 24, 6-(5-(4-(benzo[b]thiophen-4-yl)piperazin-1-yl)pentyl)-2-methylquinazolin-4(3H)-one] the EC50 [1] was 25.9 nM, the IC50 [2] was 50.7 nM and the IC50 [3, 4] was 781 nM.

O=c1ccc2ccc(CCN3CCN(c4cccc5c4CCS5)CC3)cc2[nH]1 [Compound of example 25, 7-(2-(4-(2,3-dihydrobenzo[b]thiophen-4-yl)piperazin-1-yl)ethyl)quinolin-2(1H)-one] showed an EC50 [1] of 0.824 nM, an IC50 [2] of 85.1 nM and an IC50 [3] of 77.9 nM.

O=c1[nH]cnc2ccc(CCCCCN3CCN(c4cccc5sccc45)CC3)cc12 [Compound of example 34, 6-(5-(4-(benzo[b]thiophen-4-yl)piperazin-1-yl)pentyl)quinazolin-4(3H)-one hydrochloride] was tested, and the EC50 [1] was 54 nM and the IC50 [2] was 324 nM.

In the case of O=c1[nH]c(CCN2CCN(c3cccc4sccc34)CC2)nc2ccccc12 [Compound of example 35, 2-(2-(4-(benzo[b]thiophen-4-yl)piperazin-1-yl)ethyl)quinazolin-4(3H)-one], the EC50 [1] is reported as 41.9 nM, the IC50 [2] is reported as 216 nM and the IC50 [3, 4] is reported as 21.5 nM.

COc1ccc2[nH]cc(CCN3CCN(c4cccc5sccc45)CC3)c2c1 [Compound of example 105, 3-(2-(4-(benzo[b]thiophen-4-yl)piperazin-1-yl)ethyl)-5-methoxy-1H-indole] gave an IC50 [3] of 25.5 nM.

In the case of N#Cc1ccc2[nH]cc(CCN3CCN(c4cccc5sccc45)CC3)c2c1 [Compound of example 109, 3-(2-(4-(benzo[b]thiophen-4-yl)piperazin-1-yl)ethyl)-1H-indole-5-carbonitrile], the IC50 [2] is reported as 243 nM and the IC50 [3, 4] is reported as 200 nM.

Nc1nc2cc(CCN3CCN(c4cccc5sccc45)CC3)ccc2s1 [Compound of example 116, 5-(2-(4-(benzo[b]thiophen-4-yl)piperazin-1-yl)ethyl)benzo[d]thiazol-2-amine] showed an IC50 [2] of 5.97 nM.

Molecule Nc1nc2c(CCN3CCN(c4cccc5sccc45)CC3)cccc2s1 [Compound of example 120, 4-(2-(4-(benzo[b]thiophen-4-yl)piperazin-1-yl)ethyl)benzo[d]thiazol-2-amine] has an IC50 [2] of 229 nM.

c1cc(N2CCN(CCCCc3nnnn3C3CCCCC3)CC2)c2ccsc2c1 [Compound of example 138, 1-(benzo[b]thiophen-4-yl)-4-(4-(1-cyclohexyl-1H-tetrazol-5-yl)butyl)piperazine hydrochloride] showed an IC50 [2] of 9.4 nM.
